{"source": "patent US10996215B2", "about": "“Methods for determining drug efficacy for the treatment of diffuse large B-cell lymphoma, multiple myeloma, and myeloid cancers” (CELGENE CORPORATION, priority 2013, dated 2021)", "key": {"Aiolos": {"tested_on": "Aiolos", "assay": "Western blot of Aiolos in GCB and ABC cell lines, 24 or 72 hours", "format": "cell-based", "settings": "ABC and GCB DLBCL cell lines", "description": "Aiolos or β-actin (control) protein levels were analyzed by Western blotting, essentially as described in Section 6.8."}, "Aiolos, Ikaros": {"tested_on": "Aiolos, Ikaros", "assay": "FFPE IHC for Aiolos and Ikaros in WSU-DLCL2 xenograft tumors", "format": "in vivo", "settings": "WSU-DLCL2 xenograft SCID mice, 30 mg/kg qd", "description": "WSU-DLCL2 xenograft SCID mice can be prepared using methods known in the art. In brief, female CB17 severe combined immunodeficiency (SCID) mice (6-12 weeks old) are obtained from the Charles River Laboratory (Wilmington, Mass.) and maintained in microisolator cages under sterile conditions. A total of 10×10^6 WSU-DLCL2 DLBCL cells in 100% Matrigel® (Becton Dickinson, San Jose, Calif.) are injected subcutaneously into the right flank of mice. Mice are monitored 2 or 3 times a week for the appearance of tumors.\nWSU-DLCL2 xenograft SCID mice (a human tumor xenograft model) were treated with either vehicle or 30 mg/kg Compound A q.d. Tumor samples were harvested at 1 hour, 6 hours, or 24 hours after the last dose.\nImmunohistochemistry was performed using standard methods. For example, immunohistochemistry is performed on the Bond-Max™ automated slide stainer (Leica Microsystems) using the associated Bond™ Polymer Refine Detection Kit. Four micron thick FFPE sections are deparaffinized on the instrument. Antigen retrieval is performed with Epitope Retrieval™ 2 (pH 9.0) for 20 minutes at 100° C. The slides are blocked for endogenous peroxidase activity with Peroxide Block for 5 minutes at room temperature. […]"}, "ZFP91, Aiolos": {"tested_on": "ZFP91, Aiolos", "assay": "Western blot of ZFP91 and Aiolos in OCI-LY10 cells", "format": "cell-based", "settings": "OCI-LY10, 6 hrs", "source_text": "(§1) Cells were harvested with RIPA buffer, and proteins from cell lysates were separated by 10% sodium dodecyl sulfate polyacrylamide (SDS-PAGE) gel electrophoresis (Bio-Rad), and transferred to PVDF membranes (Invitrogen). Immunoblots were probed with antibodies recognizing Aiolos (9-9-7; Celgene), CK1α(Abcam), GSPT1 (Sigma), ZFP91 (LSBio) and β-actin (Li-Cor). Signals were detected with a Li-Cor Odyssey imager.\nImmunoblots were probed with antibodies recognizing Aiolos (9-9-7; Celgene), GSPT1 (Sigma), ZFP91 (LSBio) and β-actin (Li-Cor). Signals were detected with a Li-Cor Odyssey imager.\nas §1, with “OCI-LY10 cells treated with DMSO or various drugs for 6 hrs. Cells” for “Cells”, “buffer” for “buffer,”, “recognizing:” for “recognizing”\nOCI-LY10 cells were then treated with DMSO or various drugs for 6 hrs. […] Cells were harvested with RIPA buffer and Proteins from cell lysates were separated by 10% sodium dodecyl sulfate polyacrylamide (SDS-PAGE) gel electrophoresis (Bio-Rad), and transferred to PVDF membranes (Invitrogen). Immunoblots were probed with antibodies recognizing: Aiolos (9-9-7; Celgene), ZFP91 (LSBio), ZNF198 (LSBio) and β-actin (Li-Cor). Signals were detected with a Li-Cor™ Odyssey imager.\nOCI-LY10 cells stably transduced with shCRBN 11 were induced for 48 hrs with either 0 or 10 ng/ml of doxycycline. […] Where MLN4924 treatments were present, MLN4924 was pre-incubated for 1 hr prior to drug treatment. Cells were harvested with RIPA buffer and Proteins from cell lysates were separated by 10% sodium dodecyl sulfate polyacrylamide (SDS-PAGE) gel electrophoresis (Bio-Rad), and transferred to PVDF membranes (Invitrogen). Immunoblots were probed with antibodies recognizing: CRBN-65, Aiolos (9-9-7; Celgene), Ikaros (Millipore), ZFP91 (LSBio) and β-actin (Li-Cor). Signals were detected with a Li-Cor Odyssey imager."}, "HNT-34": {"tested_on": "HNT-34", "assay": "4 d BrdU cell assay / tritiated thymidine, sensitivity", "format": "cell-based", "settings": "FIG. 22B", "description": "(§2) Sensitivity to lenalidomide treatment in a panel of myeloid cancer cell lines was evaluated by tritiated thymidine and/or BrdU assays."}, "MDS-L": {"tested_on": "MDS-L", "assay": "4 d BrdU cell assay / tritiated thymidine, sensitivity", "format": "cell-based", "settings": "FIG. 22B", "description": "as §2"}, "CSNK1A1 (CK1α), Ikaros": {"tested_on": "CSNK1A1 (CK1α), Ikaros", "assay": "MG-132, MLN-4924 or Compound A pre-treatment, Western analysis in HNT-34 cells", "format": "cell-based", "settings": "10 μM Compound A 1.5 h, 0.3 μM or less lenalidomide, 3 h or 6 h"}, "[1]": {"tested_on": "DLBCL cell lines (GCB and ABC)", "assay": "tritiated thymidine incorporation proliferation assay", "format": "cell-based", "description": "Cells were then cultured for 3 days at 37° C. Tritiated thymidine was applied to the cell culture for the final 6 hours and cells were then harvested onto filter plates. After the plates have dried, scintillation fluid was added to the plates and read on a Top-count reader.\nThe cells were then analyzed for proliferation using a ^3H-thymidine incorporation assay.\nProliferation was assessed through tritiated thymidine incorporation."}, "[2]": {"settings": "3 days, tritiated thymidine incorporation"}}, "data": [{"smiles": "Cc1nc2cccc(N)c2c(=O)n1C1CCC(=O)NC1=O", "note": "(stereo not shown) [Compound A, 3-(5-amino-2-methyl-4-oxo-4H-quinazolin-3-yl)-piperidine-2,6-dione]", "values": [{"measurement": "Aiolos protein levels", "setting": "Aiolos", "result": "decrease in a dose-dependent manner"}, {"measurement": "time to Aiolos and Ikaros degradation in tumor", "setting": "Aiolos, Ikaros", "result": "≤ 6", "unit": "h"}, {"measurement": "levels of ZFP91 and Aiolos", "setting": "ZFP91, Aiolos; 100 mM thalidomide, 10 mM lenalidomide, 1 mM pomalidomide, 1 μM or 10 μM Compound A, 100 nM Compound B, FIG. 17A", "result": "reduced"}, {"measurement": "levels of ZFP91 and Aiolos", "setting": "ZFP91, Aiolos; 1 or 10 μM lenalidomide, 0.1, 1 or 10 μM Compound A, FIG. 17B", "result": "reduced"}, {"measurement": "sensitivity of HNT-34 cells", "setting": "HNT-34", "result": "only MDS-L cells were sensitive to Compound A"}, {"measurement": "sensitivity of MDS-L cells", "setting": "MDS-L", "result": "sensitive"}, {"measurement": "lenalidomide induced CSNK1A1 degradation after Compound A pre-treatment", "setting": "CSNK1A1 (CK1α), Ikaros", "result": "blocks"}, {"measurement": "sensitivity of ABC DLBCL cell lines", "setting": "[1]", "result": "sensitive"}, {"measurement": "activity in some GCB DLBCL compared to lenalidomide (proliferation)", "setting": "[1]; [2]", "result": "Differential activity"}, {"measurement": "potency in ABC DLBCL (proliferation)", "setting": "[1]; [2]", "result": "more potent than lenalidomide"}]}]}
